Source: US9974759B2, “Beta 2 adrenoceptor antagonists for treating orthostatic hypotension” (Indiana University Research & Technology Corporation, priority 2013, dated 2018)
Entries after “also recorded” stand apart in the source; their conditions may differ.

Key:
left stellate ganglion = experiment: Ambulatory recording of stellate ganglion nerve activity (SGNA); details: carvedilol 12 mg twice daily for a week or ICI infusion 7 days; immediately before drug 209.40
Method: (§1) Eight mongrel dogs (4 male, weighing 20-30 kg) were used in this Example. Left thoracotomy was performed through the first intercostal space for the implantation of a D70-CCTP radiotransmitter manufactured by the Data Sciences International (DSI, St Paul, Minn.). The first pair of bipolar electrodes was inserted beneath the nerve sheath of the left stellate ganglion. A second pair of bipolar leads was attached to the left thoracic vagal nerve at a level of 4 to 5 cm above the aortic arch. The third lead, a catheter with a pressure sensor, was inserted directly into the subclavian artery for blood pressure (BP) recording. The transmitter and ground wires were inserted into a subcutaneous pocket.
(§2) After 2 weeks of recovery, the radiotransmitter was turned on to record nerve signals and BP at baseline. The pre-implantation BP was calibrated against the ambient pressure in the vivarium. […]
(§3) The nerve activities were integrated minute-by-minute. […] The mean BP was also analyzed minute-by-minute during the same period. […] Pearson correlation coefficients between these two nerve activities were calculated. […]
(§4) To determine the relationship between BP, heart rate (HR) and ANS activities, 1-minute and 4-hour averages for each dog were calculated on each day of data collection starting at midnight. Pearson correlation coefficients between SGNA and VNA were also calculated within each 4-hour interval. […]

mongrel dogs = experiment: Ambulatory monitoring of blood pressure in dogs (radiotransmitter, Protocol 1); details: for BP response following simultaneous termination of sympathovagal firing and postural change: FIGS. 5A-5I, example dog, baseline drop from 110 mmHg to 80 mmHg; for BP: all eight dogs, random effects model, oral carvedilol 12 mg twice daily for a week, or 7 days of ICI infusion (3.1 μg/kg/hr), baseline 125.60; for percentage of hypotensive episodes (mean systolic pressure <100 mmHg in one min): minute-by-minute data, all dogs, baseline 7.1%
Method: as §1
After 2 weeks of recovery, the radiotransmitter was turned on to record nerve signals and BP at baseline. The pre-implantation BP was calibrated against the ambient pressure in the vivarium. There was a 12-hour daylight cycle in the vivarium staring at 7 AM each day. After the baseline (stellate ganglion nerve activity (SGNA), vagal nerve activity (VNA), and BP) recordings, the dogs were given oral carvedilol, 12 mg twice daily for a week. The drugs were then washed out for a week and baseline recordings were re-collected. […] The pump is designed to empty its contents over 7 days at a rate of 10 μl/hr. Therefore, the infusion rate was 3.1 μg/kg/hr for a 30 kg dog. […] The data collected at days 6-7 of the infusion were used for analyses.
The nerve activities were integrated minute-by-minute. Because BP recordings are prone to motion artifacts, the data of all dogs included in Protocol 1 was manually reviewed and the first 10 noise-free minutes of each hour were selected for analyses. The mean BP was also analyzed minute-by-minute during the same period. The SGNA was plotted against the VNA on an XY graph to visualize the patterns of activation. Pearson correlation coefficients between these two nerve activities were calculated. The data obtained from the manual analyses were subjected to further statistical analyses as described below.
To determine the relationship between BP, heart rate (HR) and ANS activities, 1-minute and 4-hour averages for each dog were calculated on each day of data collection starting at midnight. Pearson correlation coefficients between SGNA and VNA were also calculated within each 4-hour interval. To analyze data from any given individual dog, multiple linear regression with systolic BP as the dependent variable and ANS activities as the independent variables based on 1-minute average data were used. To analyze data from all dogs and the 4-hour average data, a random effects model with dog as the random effect was used with the same dependent and independent variables, plus HR and the Pearson correlation coefficient as additional independent variables. […] A cubic smoothing spline was also used to fit BP versus hour for one dog. Statistical analysis was performed with IBM SPSS Statistics 19 (Armonk, N.Y.) and SAS version 9.3 (SAS Institute Inc., Cary, N.C.).

[1] = test system: left thoracic vagal nerve; experiment: Ambulatory recording of vagal nerve activity (VNA); details: carvedilol 12 mg twice daily for a week or ICI infusion 7 days; immediately before drug 192.96
Method: as §1, §2, §3, §4

humans = details: doses up to 80 mg orally, no continuous BP monitoring; cited from earlier work
[2] = test system: rat model of orthostatic hypotension; details: no definite beneficial effect shown; cited from earlier work

SMILES	iSGNA (integrated stellate ganglion nerve activity) (left stellate ganglion)	BP response following simultaneous termination of sympathovagal firing and postural change (mongrel dogs; listed as ICI)	BP (mongrel dogs)	percentage of hypotensive episodes (mean systolic pressure <100 mmHg in one min) (mongrel dogs) [%]	iVNA (integrated vagal nerve activity) [1]	effect on BP or heart rate (humans)	effect on orthostatic symptoms [2]	BP response following simultaneous termination of sympathovagal firing and postural change (mongrel dogs)
Cc1ccc(OCC(O)C(C)NC(C)C)c2c1CCC2 (stereo not drawn) [ICI-118,551, 3-(isopropylamino)-1-[(7-methyl-4-indanyl)oxy]butan-2-ol]	281.23 (95% CI: 230.30 to 332.16) mV-s	no change in BP; also recorded: not followed by hypotension	133.00 (95% CI: 124.85 to 141.14) mmHg	1.3	220.18 (95% CI: 156.46 to 283.90) mV-s	does not alter BP or heart rate	had a tendency of improving orthostatic symptoms	
COc1ccccc1OCCNCC(O)COc1cccc2[nH]c3ccccc3c12 (stereo not drawn) [carvedilol]	258.47 (95% CI: 207.20 to 309.75) mV-s		124.8 (95% CI: 116.63 to 132.97) mmHg	7.8	186.68 mV-s			drop in BP from 100 mmHg to 80 mmHg; also recorded: followed by hypotension
